Measurements taken from PubChem BioAssay AID1259407 (Chemical Carcinogenesis Research Information System (CCRIS), 2018).
Active and inactive are the calls of the source. How the calls were made is not given here.

Tested on: CCRIS mutagenicity, Ames/micronucleus/aberration tests
Assay: CCRIS mutagenicity studies
[1] = Test System: AMES SALMONELLA TYPHIMURIUM, Strain/Indicator: TA98, Metabolic Activation: NONE, Method: STANDARD PLATE
[2] = Test System: AMES SALMONELLA TYPHIMURIUM, Strain/Indicator: TA100, Metabolic Activation: NONE, Method: STANDARD PLATE

O=c1c(O)c(-c2ccc(O)c(O)c2)oc2cc(O)ccc12
mutagenic call (End Point: IN VITRO CHROMOSOMAL ABERRATIONS, Test System: HUMAN HL60 CELLS, Metabolic Activation: NONE): active; positive (structural changes) | mutagenic call (End Point: IN VITRO CHROMOSOMAL ABERRATIONS, Test System: HUMAN TK6 CELLS, Metabolic Activation: NONE): active; positive (structural changes) | mutagenic call (End Point: IN VITRO MICRONUCLEUS, Test System: HUMAN HL60 CELLS, Metabolic Activation: NONE): active; positive | mutagenic call (End Point: IN VITRO MICRONUCLEUS, Test System: HUMAN TK6 CELLS, Metabolic Activation: NONE): active; positive | mutagenic call (Test System: Ames Salmonella typhimurium, Strain/Indicator: TA102, Metabolic Activation: None, Method: Preincubation): inactive; negative | mutagenic call (Test System: Ames Salmonella typhimurium, Strain/Indicator: TA102, Metabolic Activation: Rat, Liver, S-9, Aroclor 1254 in 0.154 M KCl, Method: Preincubation): inactive; negative

CC(C)(c1ccc(OCC(O)CO)cc1)c1ccc(OCC(O)CO)cc1 (configuration not stated)
mutagenic call [1]: inactive; negative | mutagenic call (Test System: AMES SALMONELLA TYPHIMURIUM, Strain/Indicator: TA98, Metabolic Activation: RAT LIVER S-9, PHENOBARBITAL/METHYLCHOLANTHRENE (4%), Method: STANDARD PLATE): inactive; negative | mutagenic call [2]: inactive; negative | mutagenic call (Test System: AMES SALMONELLA TYPHIMURIUM, Strain/Indicator: TA100, Metabolic Activation: RAT LIVER S-9, PHENOBARBITAL/METHYLCHOLANTHRENE (4%), Method: STANDARD PLATE): inactive; negative | mutagenic call (Test System: AMES SALMONELLA TYPHIMURIUM, Strain/Indicator: TA1535, Metabolic Activation: NONE, Method: STANDARD PLATE): inactive; negative | mutagenic call (Test System: AMES SALMONELLA TYPHIMURIUM, Strain/Indicator: TA1535, Metabolic Activation: RAT LIVER S-9, PHENOBARBITAL/METHYLCHOLANTHRENE (10%), Method: STANDARD PLATE): inactive; negative | mutagenic call (Test System: AMES SALMONELLA TYPHIMURIUM, Strain/Indicator: TA1537, Metabolic Activation: NONE, Method: STANDARD PLATE): inactive; negative | mutagenic call (Test System: AMES SALMONELLA TYPHIMURIUM, Strain/Indicator: TA1737, Metabolic Activation: RAT LIVER S-9, PHENOBARBITAL/METHYLCHOLANTHRENE (10%), Method: STANDARD PLATE): inactive; negative

[N-]=[N+]=NC[C@H]1O[C@H](O)[C@H](O)[C@@H](O)[C@@H]1O
mutagenic call [1]: inactive; negative | mutagenic call [2]: active; positive

Cc1cc2c(N3CCCC3)nc(N3CCCC3)nc2n1C
mutagenic call (Test System: UDS RAT HEPATOCYTES, Strain/Indicator: THY-INCORP, Metabolic Activation: NONE, Method: AUTORADIOGRAPHY): active; positive
